Measurements reported in patent US8470847B2, “Derivatives of 7-alkynyl-1,8-naphthyridones, preparation method thereof and use of same in therapeutics” (Sanofi, priority 2007, dated 2013).
pIC50: −log10 of the molar value.

Tested on: not given
Assay: not given
Settings: not given

| Structure (SMILES) | melting point |
| --- | --- |
| CNC(=O)c1c(N)n(Cc2ccccn2)c2nc(C#CC(C)(O)COC)ccc2c1=O (racemic) | 169 °C |
| CCn1c(N)c(C(=O)NC)c(=O)c2ccc(C#CC3(O)CCOC3)nc21 (racemic) [Compound 7, (±)-2-Amino-1-ethyl-7-[(3-hydroxytetrahydrofuran-3-yl)ethynyl]-N-methyl-4-oxo-1,4-dihydro-1,8-naphthyridine-3-carboxamide] | 253 °C |
| CCn1c(N)c(C(=O)NC)c(=O)c2ccc(C#CC(O)C3CCCC3)nc21 (racemic) [Compound 10, (±)-2-Amino-7-(3-cyclopentyl-3-hydroxyprop-1-yn-1-yl)-1-ethyl-N-methyl-4-oxo-1,4-dihydro-1,8-naphthyridine-3-carboxamide] | 253 °C |

Results, then the compound that gave them:

| melting point | Structure (SMILES) |
| --- | --- |
| 208 °C | CCn1c(N)c(C(=O)NC)c(=O)c2ccc(C#CC(O)(COC)C3CC3)nc21 (racemic) [Compound 50, (±)-2-Amino-7-(3-cyclopropyl-3-hydroxy-4-methoxybut-1-yn-1-yl)-1-ethyl-N-methyl-4-oxo-1,4-dihydro-1,8-naphthyridine-3-carboxamide] |
| 210.5 °C | CNC(=O)c1c(N)n(C2CCCC2)c2nc(C#CC(C)(O)CO)ccc2c1=O (racemic) [Compound 53, (±)-2-Amino-1-cyclopentyl-7-(3,4-dihydroxy-3-methylbut-1-yn-1-yl)-N-methyl-4-oxo-1,4-dihydro-1,8-naphthyridine-3-carboxamide] |
| 271 °C | CCn1c(N)c(C(=O)NC)c(=O)c2ccc(C#CC(C)(O)c3cnccn3)nc21 (racemic) [Compound 48, (±)-2-Amino-1-ethyl-7-(3-hydroxy-3-pyrazin-2-ylbut-1-yn-1-yl)-N-methyl-4-oxo-1,4-dihydro-1,8-naphthyridine-3-carboxamide] |

Target: VEGFR-3 (Homo sapiens (Human), UniProt P35916)
Assay: Measurement of the tyrosine kinase activity of VEGFR-3 by ELISA
Format: biochemical
Settings: VEGFR-3-TK, poly Glu-Tyr substrate, 30 μM ATP
Protocol: Measurement of the Tyrosine Kinase Activity of VEGFR-3 by ELISA
The enzymatic activity of VEGFR-3 is evaluated on an ELISA assay by measuring the intensity of phosphorylation of the substrate poly Glu-Tyr. […] The plate is then covered with an adhesive film and incubated overnight at 37° C. The following day, the wells are emptied by turning the plate over, washed by adding 300 μl of buffer solution (PBS+0.05% Tween 20) and dried by further incubation of the plate for 2 h at 37° C. A 90 μl reaction mixture is deposited onto each well. […] The plates are then incubated with gentle agitation at ambient temperature for 30 min. After 3 rinses with the buffer solution (300 μl/well per wash), 100 μl of anti-phosphotyrosine-HRP antibody ( 1/30 000) are added to each well and the plates are again incubated for 30 min at ambient temperature with gentle agitation. […] The total activity is evaluated by the difference in optical density obtained on samples incubated in the presence (stimulated) and in the absence (non-stimulated) of VEGFR-3.

Chain of VEGFR-3 (P35916 845-1173): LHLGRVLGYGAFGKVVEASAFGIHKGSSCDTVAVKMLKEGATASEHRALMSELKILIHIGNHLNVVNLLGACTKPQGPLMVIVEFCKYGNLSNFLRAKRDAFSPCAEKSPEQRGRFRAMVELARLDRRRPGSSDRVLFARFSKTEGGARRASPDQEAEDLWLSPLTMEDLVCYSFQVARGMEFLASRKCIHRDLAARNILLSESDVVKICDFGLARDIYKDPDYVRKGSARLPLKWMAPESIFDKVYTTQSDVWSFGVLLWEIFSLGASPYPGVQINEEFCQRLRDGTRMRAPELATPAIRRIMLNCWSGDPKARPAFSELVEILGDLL

| Structure (SMILES) | pIC50 |
| --- | --- |
| CCn1c(N)c(C(=O)NC)c(=O)c2ccc(C#CC(C)(O)COC)nc21 (single isomer, unassigned; (-)) [Compound 72, (−)-2-amino-1-ethyl-7-(3-hydroxy-4-methoxy-3-methylbut-1-yn-1-yl)-N-methyl-4-oxo-1,4-dihydro-1,8-naphthyridine-3-carboxamide] | 7.64 |
